According to patent publication US11638427B2, “Methods and compositions for altering secondary metabolites in plants” (Impello Biosciences, Inc, priority 2020, dated 2023):
Values joined by “and” are separate entries in the source; they are usually repeats but may differ in a detail not shown here. Identical values can stand only once.

System: CBDRx Cherry hemp clones
Experiment: Foliar spray of MS, MDJ and MS+MDJ on hemp clones: biomass, cannabinoid and terpene analysis
Format: in vivo, Cannabis spp.
Design: CBDA / CBD / THCA / Total CBG / Total cannabinoids: unit not given here
Description: Methyl salicylate (MS) is an antagonistic compound to the jasmonates. To investigate the effect of MS alone and in conjunction with MDJ, MS (CAS No.: 119-36-8), MDJ, and the combination (MS+MDJ) were applied by foliar spray to CBDRx Cherry hemp clones once per week during both vegetative and flowering phases. Plants were transplanted into 1-gallon pots with Red's soil and put into vegetative light cycle (18L/6D). […] Plants were grown under a total of 12 Boost (Thrive Agritech, NY) 130-watt LED lights set to 18L: 6D photoperiod during the vegetative phase (2 weeks) and this was followed by a 12L: 12D photoperiod during the flowering phase (7 weeks), using the same lighting fixtures. Throughout the nine weeks, all plants were watered when needed with Jack's nutrients.
MS or MDJ treatments were applied at the following concentrations: [1 mM], [4.25 mM], [7.5 mM] and [10 mM]. Each concentration was prepared from a one molar stock solution diluted with RO water and TWEEN®-20 (1M stock) was added. Each plant was sprayed till dripping, which was approximately 50-75 ml. To apply the combination of the two biochemicals, MS and MDJ were sprayed separately but simultaneously, to ensure each compound was applied evenly onto the plant. Each compound was applied using a SPRAYMASTER Chemical Sprayer (King of Prussia, Pa.).
Plants were harvested two months after transplant. After harvesting, plants were air dried at room temperature for two weeks. Once plants were sufficiently dry, above ground dry weights were recorded and dried flower samples were collected and sent to a third-party lab for terpene and cannabinoid analysis. Two plants (#3 and #4) in treatment group MDJ [7.5] mM, two plants (#3 and #4) in MS [4.25] mM, one plant (#4) in MS [7.5], and one plant (#4) in MDJ [10] died before the end of the experiment.

[1] = 1 mM foliar spray, Avg. of group
[2] = 1 mM foliar spray, individual plant
[3] = 4.25 mM foliar spray, Avg. of group
[4] = 4.25 mM foliar spray, individual plant

With `COC(=O)c1ccccc1O` [MS, Methyl salicylate] the Alpha-bisabolol [1] was 0.08263 % wt/wt, the Alpha-humulene [1] was 0.07955 % wt/wt and the Beta-caryophyllene [1] was 0.2069 % wt/wt. It also gave a CBCA [1] of 0.715, a CBD [1] of 0.105 and a CBDA [1] of 13.675. For the same compound, the CBGA [1] was 0.365, the Limonene [1] was 0.1101 % wt/wt and the THCA [1] was 0.6. The “Total CBD” value [1] was 12.1025, the “Total CBG” value [1] was 0.32 and the Total cannabinoids [1] was 15.46. The “Total d9THC” value [1] was 0.525, the alpha-pinene [1] was 0 % wt/wt and the beta-myrcene [1] was 0.8188 % wt/wt. The beta-pinene [1] was 0.02077 % wt/wt, the total terpenes [1] was 1.435 % wt/wt and the Alpha-bisabolol [2] was 0.0925 % wt/wt and 0.1053 % wt/wt and 0.1236 % wt/wt and 0.00912 % wt/wt. For the same compound, the Alpha-humulene [2] was 0.076 % wt/wt and 0.0724 % wt/wt and 0.0922 % wt/wt and 0.0776 % wt/wt, the Beta-caryophyllene [2] was 0.1974 % wt/wt and 0.1911 % wt/wt and 0.243 % wt/wt and 0.1959 % wt/wt and the CBCA [2] was 0.82 and 0.64 and 0.67 and 0.73. For the same compound, the CBD [2] was 0.13 and 0 and 0.12 and 0.17, the CBDA [2] was 15.19 and 12.85 and 13.24 and 13.42 and the CBGA [2] was 0.42 and 0.34 and 0.32 and 0.38. The Limonene [2] was 0.1096 % wt/wt and 0.11 % wt/wt and 0.1101 % wt/wt and 0.1106 % wt/wt, the THCA [2] was 0.66 and 0.56 and 0.58 and 0.6 and the “Total CBD” value [2] was 13.45 and 11.27 and 11.74 and 11.95. The “Total CBG” value [2] was 0.37 and 0.3 and 0.28 and 0.33, the Total cannabinoids [2] was 17.22 and 14.39 and 14.93 and 15.3 and the “Total d9THC” value [2] was 0.58 and 0.49 and 0.51 and 0.52. The alpha-pinene [2] was 0 % wt/wt, the beta-myrcene [2] was 0.7692 % wt/wt and 0.8926 % wt/wt and 0.845 % wt/wt and 0.7684 % wt/wt and the beta-pinene [2] was 0.0215 % wt/wt and 0.0201 % wt/wt and 0.021 % wt/wt and 0.0205 % wt/wt. The total terpenes [2] was 1.36 % wt/wt (2×) and 1.48 % wt/wt and 1.54 % wt/wt, the Alpha-bisabolol [3] was 0.1143 % wt/wt and the Alpha-humulene [3] was 0.0794 % wt/wt. The Beta-caryophyllene [3] was 0.1996 % wt/wt, the CBCA [3] was 0.61 and the CBD [3] was 0.16. For the same compound, the CBDA [3] was 11.8, the CBGA [3] was 0.275 and the Limonene [3] was 0.1 % wt/wt. The THCA [3] was 0.51, the “Total CBD” value [3] was 10.505 and the “Total CBG” value [3] was 0.24. For the same compound, the Total cannabinoids [3] was 13.355, the “Total d9THC” value [3] was 0.45 and the alpha-pinene [3] was 0 % wt/wt. For the same compound, the beta-myrcene [3] was 0.7751 % wt/wt, the beta-pinene [3] was 0.0197 % wt/wt and the total terpenes [3] was 1.38 % wt/wt. For the same compound, the “plants died before the end of the experiment” value (4.25 mM foliar spray, four plants per treatment group) was “two plants”, the Alpha-bisabolol [4] was 0.1185 % wt/wt and 0.1101 % wt/wt and the Alpha-humulene [4] was 0.0819 % wt/wt and 0.0769 % wt/wt. The Beta-caryophyllene [4] was 0.2091 % wt/wt and 0.19 % wt/wt, the CBCA [4] was 0.61 and the CBD [4] was 0.15 and 0.17. For the same compound, the CBDA [4] was 11.88 and 11.72, the CBGA [4] was 0.27 and 0.28 and the Limonene [4] was 0.1042 % wt/wt and 0.0958 % wt/wt. For the same compound, the THCA [4] was 0.52 and 0.5, the “Total CBD” value [4] was 10.57 and 10.44 and the “Total CBG” value [4] was 0.24. The Total cannabinoids [4] was 13.43 and 13.28, the “Total d9THC” value [4] was 0.46 and 0.44 and the alpha-pinene [4] was 0 % wt/wt. The beta-myrcene [4] was 0.8061 % wt/wt and 0.744 % wt/wt, the beta-pinene [4] was 0.0209 % wt/wt and 0.0185 % wt/wt and the total terpenes [4] was 1.43 % wt/wt and 1.33 % wt/wt. For the same compound, the Alpha-bisabolol (7.5 mM foliar spray, Avg. of group) was 0.1235 % wt/wt.
